These results are taken from patent US20250197423A1, “RAS INHIBITORS” (Revolution Medicines, Inc., priority 2022, published 2025).

For data set [1] the following is noted: from CO[C@@H](C)c1ncccc1-c1c(CC(C)(C)CO)c2cc(C3=CCCN(C[C@H](NC(=O)OC(C)(C)C)C(=O)N4CCC[C@@H](C(=O)O)N4)C3)ccc2n1CC(F)(F)F; ester bond; 18-membered ring; EDCI/HOBt/DIEA; DCM; 12.5 mM; 25.0 °C; 16.0 h; 3 steps.
Data set [2] has as its system SW1573. The following applies: Canon et al. 2019; cited from earlier work.

In data set [1], `CO[C@@H](C)c1ncccc1-c1c2c3cc(ccc3n1CC(F)(F)F)C1=CCCN(C1)C[C@H](NC(=O)OC(C)(C)C)C(=O)N1CCC[C@H](N1)C(=O)OCC(C)(C)C2` registered a ring closure, isolated yield of 63.7%.

Consider `C=CC(=O)N1CCN(c2nc(=O)n(-c3c(C)ccnc3C(C)C)c3nc(-c4c(O)cccc4F)c(F)cc23)[C@@H](C)C1` [AMG510], for which, in data set [2], the “sensitivity of cell line to inhibitor” value was “insensitive”.
